Molecules are shown by their SMILES. Where only a bound is given, the exact number is not on record here.

Regarding `CC1(C)OC(=S)Nc2ccc(-c3cccc(F)c3F)cc21`, the melting point was in the range of 197 to 198 °C.
Under `CCC(=O)c1ccc(SC)cc1` stands 60 to 61 °C; under `Cc1nn(-c2ccc(Cl)cc2)c(C)c1C(=O)N[C@H](C)[C@](O)(Cn1cncn1)c1ccc(F)cc1F`, 144 to 145 °C.
As to `CCOC(=O)c1ccc(CN2C(=O)c3ccccc3C2=O)o1`, the melting point was in the range of 108 to 109 °C.
For `CS(=O)(=O)c1ccc(-n2nc(C(F)(F)F)cc2-c2ccc(-c3cscn3)c(Cl)c2)cc1F` the value was 108 to 110 °C; for `CNc1ccc(Cl)cc1-c1cc2ccccc2[nH]1`, 123 to 126 °C.
Consider `C=CCOc1cc(C)ccc1N1C(=O)c2ccccc2C1=O`, for which the melting point lay within 122 to 124 °C.
For `CCn1nc(C)c2c1C(=NC#N)NCC(c1ccc(O)cc1)=N2` the value was 300 °C; for `c1ccc(C(N=C2NCCCN2)c2ccccc2)cc1`, 238 to 242 °C.
For `COc1ccc(-c2cc(=O)c3cc(OCCCCCCN4CCC(O)CC4)ccc3o2)cc1` the value was 134 to 135 °C.
Under `O=C(Nc1ccc(CN2CCCCC2)cc1)C1=Cc2cc(-c3ccc(F)cc3)ccc2CC1` stands 175 to 176 °C.
On to `COc1ccc(-c2coc3ccc(-c4nnc(C)o4)cc23)cc1F`, for which the melting point was 159 to 160 °C.
`CC(C)n1ccnc1S(=O)(=O)c1ccc(O)cc1` came in with a melting point of 152 to 153 °C.
For `C=CCNc1nc(C)cc(C)n1` the value was 62 to 63 °C; for `CC(C)N1CCC(CNc2ccc(NS(C)(=O)=O)cc2C(=O)Nc2ccc(Cl)cn2)CC1`, 204 to 205 °C.
Consider `CCOC(=O)COc1coccc1=O`, for which the melting point fell in the range of 58 to 60 °C.
For `NC(=O)C1(N2CCCCC2)CCN(Cc2ccccc2)CC1` the value was 150 to 160 °C; for `N#CSc1ccc([N+](=O)[O-])cc1C(Cl)(Cl)Cl`, 72 °C; for `OCCOc1ccc(Oc2ccc(F)cc2)cc1`, 74 to 76 °C.
For `CC1(C=O)CC1(c1cccc(F)c1)c1cccc(F)c1` (configuration not stated) the value was 92 to 93 °C; for `CCc1nc(/C=C/c2cn(-c3ccccc3)nc2OCc2ccc(OCc3nc(-c4ccc(C(=O)O)s4)oc3C)c(OC)c2)cs1`, 150 to 151 °C.
`O=C(Nc1cc(Cl)ccc1S(=O)(=O)c1ccccc1)N[C@@H](Cc1ccc(NC(=O)c2c(Cl)cccc2Cl)cc1)C(=O)O` returned a melting point of 242 °C.
For `Clc1ccc(Cn2c(-c3ccccn3)nc3ccccc32)cc1Cl` the value was 227 to 229 °C.
For `CN1C(=O)[C@@H](NC(=O)C(C)(C)C)N=C(c2ccccc2)c2ccccc21` the value was 85 to 94 °C; for `CC(C)(C)c1cc(-c2c[nH]c(=O)[nH]2)cc(C(C)(C)C)c1O`, more than 260 °C.
For `CCOC(=O)c1c(C(F)(F)F)nc(C(F)(F)Cl)c(C(=O)OC)c1Nc1ccccc1` the value was 91 to 92 °C; for `CN(C)Cc1cc(C(=O)c2cccs2)cc(C2CCCCC2)c1O`, 105 to 106 °C; for `Nc1cccc(-c2ccc(OC3CN(Cc4ccccn4)C3)c3ccccc23)n1`, 97 to 120 °C.
The compound `O=c1[nH]c2cccc(OCCNCc3ccc(Cl)cc3)c2[nH]c1=O` showed a melting point of more than 250 °C.
Under `CCCOc1c(OC)c(OC)cc(C)c1C(=O)c1c(Cl)cccc1Cl` stands 143 °C; under `CCN1C(=O)c2ccc(C(F)(F)F)cc2S(=O)(=O)c2ccccc21`, 145 to 146 °C.
Under `COc1cc2c(cc1OC)C(=O)C(CN1CCC(O)(c3ccccc3)CC1)CC2` (configuration not stated) stands 175 to 177 °C.
Under `CNS(=O)(=O)c1cnc2c(OC)c(OC)c(OC)cc2c1O` stands 254 to 255 °C; under `CCCNC(=O)C1(CCCCC#N)c2ccccc2-c2ccccc21`, 102 to 104 °C; under `CC(C)(C)OC(=O)N1CCC[C@@H](OC(=O)c2ccc(OC(C)(C)C)cc2)[C@H](NC(=O)c2ccc(OC(C)(C)C)cc2)C1`, 126 to 128 °C.
For `CN1CCC(C2(O)c3ccccc3Sc3ccc(S(=O)(=O)C(F)(F)F)cc32)CC1` (configuration not stated), the melting point lay in the range of 211 to 216 °C.
Under `Cc1ncsc1C(=O)CCCSc1nnnn1C` stands 64 to 65 °C; under `CN1CCN(C(=O)Nc2ccc3c(c2Cl)C(c2ccccc2F)=NCC(=O)N3C)CC1`, 154 °C; under `CC(=O)CC(=O)c1ccc2c3c(cccc13)CC2`, 59 °C.
For `COC(=O)c1ccc(CCC2CNc3nc(NC(=O)C(C)(C)C)nc(O)c3C2)[nH]1` (configuration not stated) the value was 246 to 248 °C; for `Cc1ncncc1C(=O)Nc1ccc(-n2nc(C(F)(F)F)cc2C2CC2)nc1`, 159 to 160 °C; for `COc1ccc(-n2c(CC(=O)O)c(C(=O)O)c3cc(Oc4cc(C(F)(F)F)cc(C(F)(F)F)c4)ccc32)cc1`, 232 °C.
Under `Cn1c(=O)[nH]c2nc(C(F)(F)F)n(Cc3ccccc3)c2c1=O` stands 211 to 213 °C; under `Cc1cc(NC(=O)N(C)C)cc(C)c1S(=O)(=O)C[N+](=O)[O-]`, 205 to 206 °C; under `CCNC(=O)c1ccc(-c2ccc(-c3ccccc3)c(-c3ccc4c(c3)C(C)(C)CCC4(C)C)c2)cc1`, 183 °C.
Consider `CS(=O)(=O)c1ccc(C2=C(c3ccc(-c4cscn4)cc3)C(=O)OC2)cc1F`, for which the melting point was 218 °C.
Under `CCCC(=O)Nc1n[nH]c2cc(Cl)c(-c3ccccc3)cc12` stands 235 °C.
Under `CCOC(=O)C(CC=C1CCN(c2ccccc2)C1=O)Nc1cc(Cl)ccc1I` (configuration not stated) stands 132 to 134 °C.
Under `Cc1ccc(-c2cc(OCC(=O)N3CCOCC3)c3c(C(F)(F)F)cccc3n2)cc1` stands 172 °C; under `O=C1CCC(CCN2CCN(c3cc(C(F)(F)F)ccc3F)CC2)CC1`, 75 to 76 °C.
For `Cc1cc(OCCc2nc(-c3ccccc3)oc2C)ccc1OC(C)(C)C(=O)O`, the melting point was determined as 117 °C.
Under `CC(C)(N)Cc1c[nH]c2ccc(Cl)cc12` stands 156 to 158 °C; under `O=C(Nc1ccc(C(=O)N2Cc3ccccc3Cc3ccccc32)cc1)c1ccc(Cl)cc1Cl`, 212 to 215 °C.
Under `CC(C)C(=O)N[C@H]1C[C@@H](c2cc(NC(=O)Cc3cccc4ccccc34)n[nH]2)C1` stands 131 °C; under `CN(Cc1ccc(NC(=O)C2=Cc3cc(-c4ccc5c(c4)CCC(C)(C)O5)ccc3S(=O)(=O)CC2)cc1)C1CCOCC1`, 222 to 226 °C; under `C[C@]1(COc2ccc(N3CCC(COc4ccc(CCl)cc4)CC3)cc2)Cn2cc([N+](=O)[O-])nc2O1`, 140 to 142 °C.
`CCn1cc(-c2ccccc2)c(=O)c(-c2cccc(C(F)(F)F)c2)c1` gave a melting point of 98 to 100 °C.
With `O=C1Nc2ccccc2OC1c1ccccc1` (configuration not stated), the melting point stood at 146 °C.
Under `Cc1nc(N2CCN(CC3CCCC3)C2=O)sc1C(=O)NCc1cccnc1` stands 142 to 143 °C.
Under `CC(=O)C(=Cc1cc(O)c(O)c([N+](=O)[O-])c1)c1ccc(C)cc1` stands 189 to 194 °C; under `O=S(=O)(CCl)c1ncc(Cl)cn1`, 100 °C; under `COc1cc(C(=O)NS(=O)(=O)c2ccccc2)ccc1CN1CCOc2ccc(NC(=O)CC3CCCC3)cc21`, 190 to 192 °C.
`CC(C)(C)OC(=O)c1ncn2c1C(C)(C)N(C(=O)N1CCCC1)c1cc(F)ccc1-2` registered a melting point of 168 to 170 °C.
For `COc1ccc(O)c(NS(C)(=O)=O)c1` the value was 135 to 136 °C; for `COC1(N(C)C)C=CC(C(=O)Nc2ccccc2)=CC1` (configuration not stated), 173 °C; for `CCCCC1CSC(C(=O)Nc2c(SC)cc(C)nc2SC)c2cc(OC)c(OC)cc2C1` (configuration not stated), 143 to 145 °C.
Under `COc1cc(CC(=O)O)ccc1OCCNC(=O)C1Cc2ccccc2N1S(=O)(=O)c1ccc(-c2cccc(C(F)(F)F)c2)cc1` (configuration not stated) stands 89 to 98 °C.
For `CCOC(=O)c1cnc(S(=O)(=O)Cc2ccccc2)n1-c1c(CC)cccc1CC` the value was 62 to 66 °C; for `CC(C)(C)c1cc(-c2noc(N)n2)cc(C(C)(C)C)c1O`, 202 to 204 °C.
On to `CC(=O)NC[C@H]1CN(c2ccc(N3CCC4(CC3)CS4)c(F)c2)C(=O)O1`, for which the melting point was 152 to 154 °C.
The compound `CCOC(=O)COc1ccc(-c2ccc(Cl)c(C(=O)NCC34CC5CC(CC(C5)C3)C4)c2)cc1` came in with a melting point of 136 to 140 °C.
Under `COC(=O)c1cccc2[nH]c3cc4c(c(OC)c3c12)CCCC4` stands 194 to 196 °C.
For `CSCCC(NC(C)=O)C(=O)N1CC1C#N` (configuration not stated) the value was 86 to 88 °C; for `O=C(Nc1ccc(Oc2ccnc(-n3ccnc3)n2)c2ccccc12)c1cc(F)cc(N2CCCCC2)c1`, 175 to 176 °C.
Under `CCOC(=O)CN1C(=O)C(=O)N(C)C1=O` stands 97 to 98.5 °C.
In turn, `Nc1c(Br)cccc1CS(=O)(=O)c1ccccc1` came in with a melting point of 174 to 177 °C.
For `CN(C)S(=O)(=O)c1ccc2c(c1)C(Cl)c1ccccc1C=C2` (configuration not stated) the value was 140 to 144 °C; for `Cc1onc(-c2ccc(Cl)c(Cl)c2)c1-c1ccc(S(N)(=O)=O)cc1`, 66 to 71 °C.
Under `CCc1nc2c(-c3ccc(OC)cc3Cl)ncnc2n1C(C1CC1)C1CC1` stands 139 to 140 °C; under `N#CCc1nc(C(F)(F)F)ccc1C(=O)O`, 152 to 153 °C; under `Cc1cc(C)cc(-c2cn(C)cc(-c3ccccc3)c2=O)c1`, 148 to 150 °C.
For `CC1(C)CC(c2ccc3ccccc3n2)c2cc(C#N)ccc2O1` (configuration not stated) the value was 174 to 176 °C; for `COC(=O)N1CCC(=O)C(C2(NO)OCCO2)C1` (configuration not stated), 162 to 165 °C; for `CCOC(=O)c1cn(C2CC2)c2c(F)c(N3CC(O)C3)c(F)cc2c1=O`, 260 to 270 °C.
On to `CCOC(=O)c1cnn(-c2cc(Cl)cc(Cl)c2)c1C#N`, for which the melting point was in the range of 101 to 103 °C.
For `CC(C)(C)c1cccc(C(=O)Nc2ccccc2C(=O)NCCc2ncc[nH]2)c1` the value was 205 to 210 °C.
Under `CC(=O)N(c1ccc(C)c(C)c1)[C@H](C)C(=O)O` stands 156 to 159 °C.

Broadly, the melting point is the temperature of the solid-liquid transition.

The values above are taken from a melting point compilation (Tetko et al.; mined from patent text by program, amines drawn as free bases though some values may be those of a salt).
